This is an account of results in PubChem BioAssay (NCI).

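Compound exposure: 48 hours, 5 concentrations, 96-well plates. At the GI50, growth is halved. TGI is the concentration that stops growth completely.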

What all share (experiment): NCI-60 cell line screen, 48 h
In test [1] the test system is IGROV1 ovarian.
In test [2] the test system is SK-MEL-28 melanoma.
Test [3] concerns MDA-MB-435.
Test [4] deals with UACC-62 melanoma.
For test [5], the system named is KM12 colon.
For test [6], the system named is NCI-H226 lung.
In test [7] the test system is UACC-257 melanoma.
The subject of test [8] is TK-10 renal.
In test [9] the test system is SF-295 CNS.
Test [10] relates to DU-145 prostate.

In the case of `O=C(Nc1ccc(Br)cc1F)c1cc(F)ccc1O`, the GI50 in test [1] is 0.37 µM; in test [2], 0.377 µM; in test [3], 0.539 µM; in test [4] it was 0.285 µM; in test [5], 2.04 µM; in [6], 0.67 µM. The GI50 in test [7] is 0.466 µM; in [8], 3.26 µM; in test [9] it was 1.76 µM; in test [10], 0.698 µM. Moreover, the TGI in test [1] is more than 100 µM; in test [2], 1.84 µM; in test [3], 4.41 µM; in test [4] it was 1 µM; in [5] it was 5.45 µM; in test [6], 3.46 µM. In addition, the TGI in test [7] stood at 4 µM; in test [8], 18 µM; in test [9], 3.42 µM; in test [10], 64.6 µM.
As for `CCN1CCN(C(=O)[C@@]2(C)CC[C@]3(C)CC[C@]4(C)C(=CC(=O)[C@@H]5[C@@]6(C)CC[C@H](OC7C[C@@H](O)[C@@H](O)C(C)O7)C(C)(C)[C@@H]6CC[C@]54C)[C@@H]3C2)CC1` (stereo not given in full), the GI50 in [1] was 1.68 µM; in [2], 1.06 µM; in test [3] it was 2.26 µM; in [4] it was 0.892 µM; in [5] it was 2.74 µM; in test [6], 10.3 µM. In addition, the GI50 in [7] was 1.65 µM; in test [8], 0.806 µM; in test [9] it was 0.934 µM; in test [10], 8.71 µM. Further, the TGI in [1] was determined as 6.39 µM; in [2] it was 2.25 µM; in [3], 8.19 µM; in [4], 1.75 µM; in test [5] it was 9.95 µM; in test [6] it was 21.3 µM. Also, the TGI worked out at 6.52 µM in [7], 1.9 µM in [8], 1.83 µM in test [9] and 16.3 µM in [10].
Regarding `C/C=C(\C)C(=O)O[C@H]1C=CC(=O)O[C@H]1CCC(=O)[C@H](C)O`, the GI50 in test [1] was 22 µM; in test [2], 9.9 µM; in test [3] it was 11.8 µM; in test [4] it was 14.1 µM; in test [5], 17.8 µM; in [6], 15.1 µM. The GI50 was 22.6 µM in [7], 17.7 µM in test [8], 23.6 µM in test [9] and 16.9 µM in test [10]. The TGI in test [1] worked out at 46.8 µM; in [2], 24.6 µM; in [3], 27.3 µM; in [4], 27.7 µM; in test [5], 38.8 µM; in test [6], 34.8 µM. The TGI in [7] is more than 57 µM; in test [8], 34 µM; in test [9], 50.8 µM; in [10] it was 33.1 µM.
Regarding `CC1(C)S[C@@H]2[C@H](NC(=O)C3(N)CCCCC3)C(=O)N2[C@H]1C(=O)O`, the TGI in test [1], in [2], in test [3], in test [4], in test [5] and in test [6] was more than 100 µM each time. The TGI in [7], in test [8], in [9] and in test [10] was more than 100 µM each time.
For the compound `N#Cc1c(NC(=O)NCc2ccccc2)sc2c1CCCCC2`, the GI50 in [1] is 0.719 µM; in test [2], 2.77 µM; in test [3] it was 0.22 µM; in test [4], 0.533 µM; in [5] it was 0.448 µM; in test [6] it was 1.05 µM. Also, the GI50 was 1.5 µM in [7], 5.92 µM in [8], 0.425 µM in test [9] and 0.564 µM in test [10]. For the same compound, the TGI was more than 100 µM in test [1]; more than 100 µM in test [2]; 0.564 µM in [3]; more than 40.2 µM in [4]; more than 100 µM in [5]; more than 28.8 µM in test [6]. Moreover, the TGI in test [7] was more than 100 µM; in [8] it was more than 100 µM; in [9], 24 µM; in test [10], 4.71 µM.
For the compound `O=C(Nc1ccc2ncccc2c1)Nc1ccc2ncccc2c1`, the TGI in test [1], in [2], in test [3], in [4], in [5] and in [6] was more than 100 µM throughout. Moreover, the TGI in test [7], in test [8], in test [9] and in [10] was more than 100 µM in each case.
Regarding `COc1ccc(OC)c2c1[nH]c(=O)c1c3ccccc3cn21`, the GI50 is less than 0.0281 µM in [1]; 1.92 µM in test [2]; 1.62 µM in test [3]; 1.55 µM in test [4]; 1.29 µM in test [5]; 1.61 µM in test [6]. For the same compound, the GI50 is 2 µM in [7], 2.01 µM in [8], 1.25 µM in test [9] and 1.51 µM in test [10]. Also, the TGI in test [1] stood at 1.43 µM; in test [2], 3.38 µM; in test [3], 3.13 µM; in test [4] it was 2.92 µM; in test [5], 2.89 µM; in [6], 3.29 µM. The TGI turned out to be 3.73 µM in test [7], 3.76 µM in test [8], 2.7 µM in [9] and 3.03 µM in test [10].
For the compound `COc1cccc(C2CC(C)(O)Oc3cc4c(cc32)OCO4)c1O` (stereo not given), the TGI was more than 100 µM in [1]; more than 100 µM in test [2]; 9.77 µM in test [3]; more than 75.9 µM in test [4]; 52.3 µM in test [5]; 57.9 µM in [6]. The TGI in test [7] is more than 100 µM; in test [8], more than 100 µM; in test [9], 64.9 µM; in test [10], 73.2 µM.
With `CSC1=Nc2c(c(C)c(C)n2COC(CO)CO)C2=NC(=O)C(C)N12` (stereo not given), the GI50 is 39.6 µM in [1]; more than 100 µM in test [2]; more than 100 µM in test [3]; more than 100 µM in test [4]; more than 100 µM in [5]; more than 100 µM in test [6]. Further, the GI50 in test [7], in [8], in test [9] and in [10] was more than 100 µM throughout. The TGI in test [1], in test [2], in [3], in test [4], in test [5] and in test [6] was more than 100 µM each time. For the same compound, the TGI in [7], in test [8], in test [9] and in test [10] was more than 100 µM throughout.
As to `N#Cc1c(N)nc(N2CCOCC2)c(C#N)c1-c1ccncc1`, the GI50 in [1] was 12.3 µM; in test [2], more than 100 µM; in test [3] it was more than 100 µM; in test [4], 27 µM; in test [5] it was more than 100 µM; in test [6] it was 75.9 µM. The GI50 in test [7] is 46.6 µM; in test [8], 72.4 µM; in test [9] it was 44.3 µM; in [10] it was more than 100 µM. For the same compound, the TGI in test [1] is 39.5 µM; in [2], more than 100 µM; in test [3] it was more than 100 µM; in test [4], more than 100 µM; in test [5], more than 100 µM; in test [6] it was more than 100 µM. Besides, the TGI in test [7], in test [8], in test [9] and in test [10] was more than 100 µM in each case.
As to `CC1(C)CC(=O)C(C=NC(=S)c2ccccc2)=C(O)C1`, the TGI in [1], in [2], in [3], in [4], in test [5] and in test [6] was more than 100 µM throughout. In addition, the TGI in test [7], in test [8], in test [9] and in [10] was more than 100 µM throughout.
Take `NC(=O)/C=C/C(=O)c1c(Cl)cccc1Cl`: the GI50 in test [1] is 1.39 µM; in test [2], 1.21 µM; in [3], 1.3 µM; in [4], 1.51 µM; in test [5], 1.59 µM; in test [6] it was 2.52 µM. In addition, the GI50 in test [7] is 1.38 µM; in [8], 1.22 µM; in test [9] it was 2.54 µM; in test [10], 1.65 µM. Also, the TGI in test [1] is 2.8 µM; in [2] it was 2.52 µM; in test [3], 3.48 µM; in [4], 2.84 µM; in test [5], 3.02 µM; in test [6], 8.25 µM. The TGI in test [7] is 2.68 µM; in test [8], 2.92 µM; in test [9] it was 7.35 µM; in [10] it was 3.04 µM.
On to `CCOC(=O)c1ccc(NC(=O)Oc2ccc3c(C)cc(=O)oc3c2)cc1`, for which the TGI in [1] is more than 100 µM; in test [2], more than 100 µM; in test [3], more than 100 µM; in [4], more than 100 µM; in test [5] it was more than 100 µM; in test [6] it was 81.3 µM. Moreover, the TGI in test [7], in test [8], in test [9] and in test [10] was more than 100 µM in each case.
With `COc1ccc(Sc2[nH]c(C(C)=O)c3ccccc23)cc1`, the GI50 was 11.8 µM in [1]; 13.5 µM in test [2]; 2.76 µM in [3]; 10.3 µM in test [4]; 6.49 µM in test [5]; 5.66 µM in test [6]. Moreover, the GI50 in test [7] was 15.3 µM; in test [8], 15 µM; in [9] it was 11.6 µM; in test [10], 16 µM. Also, the TGI in test [1] is 43 µM; in test [2] it was 26.3 µM; in test [3], 13 µM; in [4] it was 22 µM; in test [5] it was 19.7 µM; in [6], 27.6 µM. For the same compound, the TGI in test [7] is 33.3 µM; in test [8], 37.5 µM; in [9], 26.7 µM; in [10] it was 36.8 µM.
Take `Cn1c(I)c(C#CCO[Si](C)(C)C(C)(C)C)c(=O)[nH]c1=O`: the GI50 in test [1] is 17.2 µM; in test [2], 2.95 µM; in test [3], 13.9 µM; in test [4], 17.2 µM; in [5] it was 25.9 µM; in [6] it was 17.1 µM. Besides, the GI50 was 12.9 µM in test [7], 16.3 µM in test [8], more than 100 µM in test [9] and 15.3 µM in test [10]. In addition, the TGI in test [1] was 32.7 µM; in [2] it was 9.05 µM; in test [3] it was 27.8 µM; in [4], 32.2 µM; in test [5], more than 61.2 µM; in [6] it was 32.7 µM. Besides, the TGI in test [7] was 27.3 µM; in [8] it was 30.2 µM; in [9], more than 100 µM; in test [10] it was 28.6 µM.
With `CC(=O)Nc1ccc(S(=O)(=O)N2C(=O)CCC2C(=O)Nc2ccc(Br)cc2)cc1` (stereo not given), the GI50 in test [1] is 2.28 µM; in [2] it was 3.49 µM; in test [3] it was 2.72 µM; in [4], 0.648 µM; in test [5] it was 1.82 µM; in test [6] it was 2.26 µM. The GI50 is 2.1 µM in [7], 4.49 µM in [8], 2.11 µM in test [9] and 3.25 µM in test [10]. Moreover, the TGI in [1] was 10.9 µM; in test [2], 20.9 µM; in test [3], 14.3 µM; in test [4], 4.54 µM; in test [5], 13.7 µM; in test [6], 13.2 µM. For the same compound, the TGI in test [7] amounted to 9.5 µM; in test [8], 15.4 µM; in test [9], 12.1 µM; in test [10], 15.8 µM.
On to `C(=NCCN1CCOCC1)=NC1CCCCC1`, for which the TGI in test [1], in [2], in test [3], in test [4], in [5] and in test [6] was more than 100 µM throughout. In addition, the TGI in [7], in test [8], in [9] and in test [10] was more than 100 µM in each case.
Regarding `O=C(O)c1nnsc1-c1ccc(-c2snnc2C(=O)O)cc1`, the TGI in test [1], in test [2], in test [3], in test [4], in test [5] and in test [6] was more than 100 µM throughout. The TGI in test [7], in test [8], in test [9] and in test [10] was more than 100 µM in each case.
